As usually defined, the EC50 is the concentration needed to bring the measured effect to its halfway point. Broadly, the IC50 is the concentration needed to halve the response being measured.

For one test, the system named is HIV-1NL4-3. The test can be described thus: Anti-HIV replication assay against HIV-1NL4-3 in MT-4 cell line. The note with it: for EC50 (μM): HIV-1NL4-3, MT-4 cell line, Table 3 screening, 9 as control; for EC50: Human immunodeficiency virus 1, MT4, read-out: HIV-1NL4-3 EC50 (μM). The format is cell-based.
In another test the test system is HIV-1IIIB. In words: Anti-HIV replication assay against wild-type HIV-1IIIB in MT-2 cell line. The note with it: for EC50: Human immunodeficiency virus 1, MT2; for EC50 (μM): HIV-1IIIB replication in MT-2 cell line. In kind it is cell-based.
Test [1] concerns RTMDR (multi-RT inhibitor-resistant strain). In words: Anti-HIV replication assay against RTMDR strain in MT-4 cell line. The note with it: Human immunodeficiency virus 1, MT4, read-out: RTMDR EC50 (μM). The format is cell-based, HIV-1.
A further test relates to MT-2 cell line. The test can be described thus: Compound toxicity by XTT in mock-infected MT-2 cells. In kind it is cell-based. The note with it: Homo sapiens, MT2.

As for `COc1ccc(N(Cc2c(OC(C)C)ccc3c(C)cc(=O)oc23)C(=O)[C@@]23CC[C@@](C)(C(=O)O2)C3(C)C)cc1` [Compound 16, 8-[(N-4-Methoxyphenyl-N-(−)-camphanoyl)aminomethyl]-7-isopropoxy-4-methyl-2H-chromen-2-one], the “EC50 (μM)” value in the test with HIV-1NL4-3 is listed as “moderate activity”.

Turning to `CCc1cc(=O)c2ccc3c(c2o1)[C@@H](OC(=O)[C@@]12CC[C@@](C)(C(=O)O1)C2(C)C)[C@@H](OC(=O)[C@@]12CC[C@@](C)(C(=O)O1)C2(C)C)C(C)(C)O3` [Compound 3, reference compound], the “HIV-1NL4-3 TI” value with HIV-1NL4-3 (therapeutic index IC50/EC50, MT-4, Table 2 screening) is 116.

For `Cc1cc(=O)oc2c([C@H](COC(=O)[C@@]34CC[C@@](C)(C(=O)O3)C4(C)C)OC(=O)[C@@]34CC[C@@](C)(C(=O)O3)C4(C)C)c(OC(C)C)ccc12` [Compound 7, 8-(1R,2-Di-O-(−)-camphanoyloxyethyl)-7-isopropoxy-4-methyl-2H-chromen-2-one], the half-maximal effective concentration (EC50) (in the test with HIV-1NL4-3; with HIV-1IIIB; in test [1]) was greater than 20 µM throughout.

Take `CCOc1c(C(C)=O)ccc2c1[C@@H](OC(=O)[C@@]13CC[C@@](C)(C(=O)O1)C3(C)C)[C@@H](OC(=O)[C@@]13CC[C@@](C)(C(=O)O1)C3(C)C)C(C)(C)O2` [Compound 5]: in the test on HIV-1IIIB (Table 1), the “EC50 (μM)” value is recorded as “moderate activity”.

For `CC(=O)c1ccc2c(c1C)[C@@H](OC(=O)[C@@]13CC[C@@](C)(C(=O)O1)C3(C)C)[C@@H](OC(=O)[C@@]13CC[C@@](C)(C(=O)O1)C3(C)C)C(C)(C)O2` [Compound 4, 3R,4R-Dicamphanoyloxy-2,2,5-trimethyl-6-acetyl-2H-chroman], the “EC50 (μM)” value in the test with HIV-1IIIB (Table 1) is “did not show anti-HIV activity”. Besides, the EC50 in the test on HIV-1IIIB was greater than 20 µM.

On to `Cc1cc(=O)oc2c(CSC(=O)[C@@]34CC[C@@](C)(C(=O)O3)C4(C)C)c(OC(C)C)ccc12` [Compound 13], for which, in the test with HIV-1NL4-3, the “EC50 (μM)” value was “moderate activity”.

With `Cc1cc(=O)oc2cc(OC(C)(C)[C@@H](COC(=O)[C@@]34CC[C@@](C)(C(=O)O3)C4(C)C)OC(=O)[C@@]34CC[C@@](C)(C(=O)O3)C4(C)C)ccc12` [Compound 6, 7-(2R,3-Di-O-(−)-camphanoyloxy-1,1-dimethylpropoxy)-4-methyl-2H-chromen-2-one], the EC50 (in the test on HIV-1NL4-3; in the test on HIV-1IIIB; in test [1]) was greater than 20 µM each time.

In the case of `Cc1cc(=O)oc2c([C@H](C)OC(=O)[C@@]34CC[C@@](C)(C(=O)O3)C4(C)C)c(OC(C)C)ccc12` [Compound 8], the EC50 (in the test on HIV-1NL4-3; in the test with HIV-1IIIB; in test [1]) was greater than 20 µM throughout. Also, the “EC50 (μM)” value in the test with HIV-1IIIB (Table 1) is recorded as “lost anti-HIV activity completely”.

Take `Cc1cn([C@H]2C[C@H](N=[N+]=[N-])[C@@H](CO)O2)c(=O)[nH]c1=O` [AZT, zidovudine, reference compound]: the TI with HIV-1IIIB (therapeutic index IC50/EC50, HIV-1IIIB, MT-2, Table 1) was determined as 42700. Besides, in the test with MT-2 cell line, the IC50 turned out to be 1870 µM.

The values are drawn from PMC2905049 (Bioorganic & medicinal chemistry, 2010).
